Literature values in patent US7579360B2, “Triazolopyridine 11-beta hydroxysteroid dehydrogenase type I inhibitors” (Bristol-Myers Squibb Company, priority 2005, dated 2009).

Molecular target: T1, 11beta-HSD1 (Homo sapiens, UniProt P28845)
T1 construct: host or cells: patients with type 2 diabetes (liver, in vivo)
Conditions: mildly overweight individuals with type 2 diabetes, seven days, versus placebo

T1 sequence (P28845 whole entry): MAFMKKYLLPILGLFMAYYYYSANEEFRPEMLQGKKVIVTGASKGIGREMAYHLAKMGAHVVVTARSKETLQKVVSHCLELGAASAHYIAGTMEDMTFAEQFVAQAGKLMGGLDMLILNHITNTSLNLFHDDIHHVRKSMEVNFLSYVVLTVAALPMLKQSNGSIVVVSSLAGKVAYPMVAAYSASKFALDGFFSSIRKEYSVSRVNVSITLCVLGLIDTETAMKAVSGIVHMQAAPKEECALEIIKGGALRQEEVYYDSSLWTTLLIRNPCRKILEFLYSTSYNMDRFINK

CC1(C)[C@@H](OC(=O)CCC(=O)O)CC[C@]2(C)[C@H]3C(=O)C=C4[C@@H]5C[C@@](C)(C(=O)O)CC[C@]5(C)CC[C@@]4(C)[C@]3(C)CC[C@@H]12 [carbenoxolone]
hepatic glucose production: decrease
